According to ChEMBL document CHEMBL1255529, “Design, synthesis, and anticancer activities of novel perfluoroalkyltriazole-appended 2'-deoxyuridines” (Bioorg Med Chem Lett, 2010):

How the values were obtained:
[1] = test system: MDA-MB-231; experiment: Anticancer activity against human MDA-MB-231 cells by SRB assay; format: functional; details: for GI50: Homo sapiens, MDA-MB-231
[2] = test system: PC-3; experiment: Anticancer activity against human PC3 cells by SRB assay; format: functional; details: for GI50: Homo sapiens, PC-3
[3] = test system: ACHN; experiment: Anticancer activity against human ACHN cells by SRB assay; format: functional; details: for GI50: Homo sapiens, ACHN
[4] = Antiproliferative activity against human CCD-33Lu

GI50 [1] | GI50 [2] | GI50 [3] | SMILES | GI [1] | GI [2] | GI [3] | Activity [4]
– | – | – | CC(=O)OC[C@H]1O[C@@H](n2cc(-c3cn(CCC(F)(F)C(F)(F)C(F)(F)C(F)(F)C(F)(F)C(F)(F)F)nn3)c(=O)[nH]c2=O)C[C@@H]1OC(C)=O | 99.4 µM | 89.4 µM | 113.8 µM | –
– | – | – | CC(=O)OC[C@H]1O[C@@H](n2cc(-c3cn(CCC(F)(F)C(F)(F)C(F)(F)C(F)(F)C(F)(F)C(F)(F)C(F)(F)C(F)(F)F)nn3)c(=O)[nH]c2=O)C[C@@H]1OC(C)=O | 99.1 µM | 77.9 µM | 110.8 µM | –
– | – | – | O=c1[nH]c(=O)n([C@H]2C[C@H](O)[C@@H](CO)O2)cc1-c1cn(CCC(F)(F)C(F)(F)C(F)(F)C(F)(F)C(F)(F)C(F)(F)F)nn1 | 106.5 µM | 114.5 µM | 99.3 µM | –
8670 nM | 7750 nM | 8240 nM | O=c1[nH]c(=O)n([C@H]2C[C@H](O)[C@@H](CO)O2)cc1-c1cn(CCC(F)(F)C(F)(F)C(F)(F)C(F)(F)C(F)(F)C(F)(F)C(F)(F)C(F)(F)F)nn1 | 15.9 µM | 16.7 µM | 14.2 µM | Non-toxic
– | – | – | O=c1[nH]c(=O)n([C@H]2C[C@H](O)[C@@H](CO)O2)cc1-c1cn(CCC(F)(F)C(F)(F)C(F)(F)C(F)(F)C(F)(F)C(F)(F)C(F)(F)C(F)(F)C(F)(F)C(F)(F)F)nn1 | 93.7 µM | 89.4 µM | 90.8 µM | –
– | – | – | O=c1[nH]c(=O)n([C@H]2C[C@H](O)[C@@H](CO)O2)cc1-c1cn(CCC(F)(F)C(F)(F)F)nn1 | 98.7 µM | 96.4 µM | 96.1 µM | –
– | – | – | O=c1[nH]c(=O)n([C@H]2C[C@H](O)[C@@H](CO)O2)cc1-c1cn(CCC(F)(F)C(F)(F)C(F)(F)C(F)(F)F)nn1 | 109.7 µM | 97.8 µM | 116 µM | –
180 nM | 280 nM | 220 nM | COc1cccc2c1C(=O)c1c(O)c3c(c(O)c1C2=O)C[C@@](O)(C(=O)CO)C[C@@H]3O[C@H]1C[C@H](N)[C@H](O)[C@H](C)O1 [DOXORUBICIN] | 16.5 µM | 28.5 µM | 12.3 µM | –
160 nM | 4970 nM | 2100 nM | O=c1[nH]c(=O)n([C@H]2C[C@H](O)[C@@H](CO)O2)cc1F [FLOXURIDINE] | – | 40.7 µM | 25.8 µM | –
